Calls of active or inactive are those of the source. No rule for the calls is given here.
System: CCRIS mutagenicity, Ames/micronucleus/aberration tests
Test: CCRIS mutagenicity studies
Conditions: Test System: AMES SALMONELLA TYPHIMURIUM, Method: STANDARD PLATE

Measured: mutagenic call

CC(C)(C)CBr
inactive: Strain/Indicator: TA97, Metabolic Activation: NONE inactive; negative | Strain/Indicator: TA98, Metabolic Activation: NONE inactive; negative | Strain/Indicator: TA98, Metabolic Activation: RAT, LIVER, S-9, AROCLOR inactive; negative | Strain/Indicator: TA100, Metabolic Activation: NONE inactive; negative | Strain/Indicator: TA100, Metabolic Activation: RAT, LIVER, S-9, AROCLOR inactive; negative | Strain/Indicator: TA1535, Metabolic Activation: NONE inactive; negative | Strain/Indicator: TA1537, Metabolic Activation: NONE inactive; negative | Strain/Indicator: TA1538, Metabolic Activation: NONE inactive; negative | Strain/Indicator: TA2637, Metabolic Activation: NONE inactive; negative
